This note sets out measurements from US20100256357A1, “HETEROCYCLES USEFUL AS INHIBITORS OF CARBONIC ANHYDRASE” (Agouron Pharmaceuticals, Inc., priority 2006, published 2010).

For assay [1], the target named is T1, human CA-II (Homo sapiens, UniProt P00918).
T1 construct: purchased Sigma-Aldrich C6165
Kind of assay: Carbonic Anhydrase-II (CA-II) Fluorescence Polarization Tight Binding Assay-Kd Determination. As for the experimental part:
Assays were conducted in a final volume of 100 μL in 50 mM Tris/HCl (pH 7.6), 100 mM Na2SO4 and 0.005% Tween-20 in a 96-well black assay plate. […] The assay plate was
The Kd binding was calculated using GraphPad Prism and Morrison tight binding ligand equation.

A further assay has as its target T2, human CA-IX (Homo sapiens, UniProt Q16790).
T2 construct: purchased R&D Systems Inc. 2188-CA-010
Kind of assay: Carbonic Anhydrase-IX (CA-IX) Fluorescence Polarization Assay-IC50 Determination. Type of assay: binding. The conditions noted are these: read-out: CAIX IC50. On the procedure:
Carbonic Anhydrase-IX (CA-IX) Fluorescence Polarization Assay-IC50 Determination
Compounds were diluted in DMSO at the concentration of 1 mM, then 50 μM and transferred to a 96-well plate for further dilutions (1:3 dilution, 11 points) in duplicate. Final compound highest concentration in CA-IX FP assay is 1 μM. Assays were conducted in a final volume of 100 μL in 50 mM Tris/HCl (pH 7.6), 100 mM Na2SO4 and 0.005% Tween-20 in a 96-well black assay. plate. […] was used as the tracer. Binding inhibition was determined by pipetting 8 μL of human CA-IX (8 nM, R&D Systems Inc. Cat#2188-CA-010) into assay plate contained 2 μL of compound and 2 μL of tracer (2 nM) in 88 μL of assay buffer. The assay plate was incubated at room temperature for 30 minutes and read in the fluorescence polarization reader (Molecular Devices, Analyst) at 524/45 nm (excitation), 595/60 nm (emission) and 561 nm (bean splitter). […] GraphPad Prism or similar in-house software with the IC50 curve fitting using the four parameter logistic equation.
In general terms: Polarisation of emitted light reports the rotation of a fluorescent probe.

Assay [2] deals with T1, human CA-II. Kind of assay: Carbonic Anhydrase-II (CA-II) Fluorimetric Assay-IC50 Determination. Format: biochemical. Put shortly: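 Enzyme activity is read fluorimetrically at 25° C (ex 488 nm / em 538 nm) as the rate at which human CA-II hydrolyses fluorescein diacetate. The buffer is Tris/HCl (50 mM, pH 7.6) with 100 mM Na2SO4 and 0.005% Tween-20. Inhibitors run in duplicate over 11 threefold dilutions, […]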

The target of another assay is T3, human CA-IV (Homo sapiens, UniProt P22748).
T3 construct: made in house; host or cells: Escherichia coli BL21(DE3)
T3 sequence (P22748 19-284 limits assumed): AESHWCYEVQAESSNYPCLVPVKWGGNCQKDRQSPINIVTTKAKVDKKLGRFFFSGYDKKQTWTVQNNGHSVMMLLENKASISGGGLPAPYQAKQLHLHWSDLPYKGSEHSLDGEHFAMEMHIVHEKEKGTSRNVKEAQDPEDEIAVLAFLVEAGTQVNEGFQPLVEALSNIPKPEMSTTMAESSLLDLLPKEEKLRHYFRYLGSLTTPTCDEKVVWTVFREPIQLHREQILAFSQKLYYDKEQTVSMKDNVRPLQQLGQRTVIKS
Put plainly: Carbonic Anhydrase-IV (CA-IV) Fluorescence Polarization Assay-IC50 Determination. Type of assay: binding. Put shortly:
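IC50 values come from a fluorescence polarization read-out. The CA-IV protein was zinc-supplemented during expression and purified by cation exchange then gel filtration, ending in 25 mM Tris-HCl pH 7.0 with 100 mM NaCl at 7.0 mg/mL.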

The next assay deals with CAI (Homo sapiens, UniProt P00915). Kind of assay: CAI IC50 (no method described). Format: biochemical.
CAI, sequence (P00915 whole entry, species assumed): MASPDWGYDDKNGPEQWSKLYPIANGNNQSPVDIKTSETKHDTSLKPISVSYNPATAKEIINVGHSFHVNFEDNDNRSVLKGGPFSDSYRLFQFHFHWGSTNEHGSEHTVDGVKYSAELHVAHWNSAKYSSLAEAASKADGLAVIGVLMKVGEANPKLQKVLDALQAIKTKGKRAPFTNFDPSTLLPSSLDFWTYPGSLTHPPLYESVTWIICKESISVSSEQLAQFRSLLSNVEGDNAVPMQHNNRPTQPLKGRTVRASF

Where two headings read alike, the source gives them in different places.

For `COC[C@H](C)NC(=O)c1nc(Cc2ccccc2)n(-c2ccc(S(N)(=O)=O)cc2)n1` [Example R-21, 1-[4-(aminosulfonyl)phenyl]-5-benzyl-N-[(1S)-2-methoxy-1-methylethyl]-1H-124-triazole-3-carboxamide], the Kd on human CA-II [1] (read-out: CA-II Kd) came out at 0.09 nM. Besides, the results for the IC50 at human CA-IX and on human CA-IV (read-out: CA-IV IC50) were 53.3 nM and 356 nM, respectively. Also, the inhibition at 0.1 µM on human CA-II [2] (CA II Min dose 100 nM, read-out: CAII % Inh @ Min dose) is 100%. Also, on human CA-IV (CA-IV Min dose 200 nM, read-out: CA-IV: % Inh @ Min dose), the inhibition at 0.2 µM came to 53.6%.
Take `Cc1cccc(Cc2nc(CN(C)C3CCCC3)nn2-c2ccc(S(N)(=O)=O)cc2F)c1` [Example F-1ak]: the IC50 on human CA-IX amounted to 3.83 nM.
Turning to `CN(CCc1ccccc1)Cc1cn(Cc2ccccc2F)c(-c2ccc(S(N)(=O)=O)cc2)n1` [CCC-1a, 4-(1-(2-fluorobenzyl)-4-{[methyl(2-phenylethyl)amino]methyl}-1H-imidazol-2-yl)benzenesulfonamide], the IC50 at human CA-IX is 39.3 nM.
Consider `NS(=O)(=O)c1ccc(-n2ncnc2Cc2ccccc2)cc1` [Example L-1a, 4-(5-benzyl-1H-1,2,4-triazol-1-yl)benzenesulfonamide], for which the IC50 on human CA-IX came to 35.6 nM.
The same measure, in the same setting: the same measure for `CN(Cc1nc(Cc2ccccc2)n(-c2ccc(S(N)(=O)=O)cc2F)n1)C1CCCCC1` [Example F-1aq, 4-(5-benzyl-3-{[cyclohexyl(methyl)amino]methyl}-1H-1,2,4-triazol-1-yl)-3-fluorobenzenesulfonamide]: 9.41 nM; for `CCCCN(C)Cc1nc(Cc2ccccc2)n(-c2ccc(S(N)(=O)=O)cc2F)n1` [Example G-1b, 4-(5-benzyl-3-{[butyl(methyl)amino]methyl}-1H-1,2,4-triazol-1-yl)-3-fluorobenzenesulfonamide]: 9.01 nM; for `NS(=O)(=O)c1ccc(-n2nc(CN3CC=CCC3)nc2Cc2cccc(Br)c2)cc1` [Example F-1z, 4-[5-(3-bromobenzyl)-3-(3,6-dihydropyridin-1(2H)-ylmethyl)-1H-1,2,4-triazol-1-yl]benzenesulfonamide]: 7.99 nM.
Consider `CCCCN(C)C(=O)c1nc(Cc2ccccc2)n(-c2ccc(S(N)(=O)=O)cc2F)n1`, for which the IC50 on human CA-IX stood at 2.79 nM.
On to `CN(Cc1cc(Cc2ccc(Cl)cc2)n(-c2ccc(S(N)(=O)=O)cc2)n1)C1CCCCC1` [QQ-10], for which the IC50 at human CA-IX was determined as 5.18 nM.
For the molecule `Cc1cccc(Cc2nc(C)nn2-c2ccc(S(N)(=O)=O)c(F)c2F)c1` [Example Q-1, 2,3-Difluoro-4-[3-methyl-5-(3-methylbenzyl)-1H-1,2,4-triazol-1-yl]benzenesulfonamide], the “% printed in column IC50—CAII” value at human CA-II [2] (69 0.010 nM (so in the source)) was determined as 0% 69 0.010 nM. Moreover, the IC50 at CAI came out at 4610 nM. At human CA-IV (@ 5 uM), the “% printed in column IC50_CAIV” value is on record as 51% @ 5 uM.
With `CN(C)[C@H]1CCN(C(=O)c2nc(Cc3ccccc3)n(-c3ccc(S(N)(=O)=O)cc3F)n2)C1` [Example A-1m, 4-(5-benzyl-3-{[(3S)-3-(dimethylamino)pyrrolidin-1-yl]carbonyl}-1H-1,2,4-triazol-1-yl)-3-fluorobenzenesulfonamide], the Kd at human CA-II [1] (read-out: Kd_CAII) is 0.2 nM. Also, the IC50 against CAI was found to be 21 nM; on human CA-IV (read-out: IC50_CAIV), 429 nM.
As to `CN(CCN1CCOCC1)C(=O)c1nc(Cc2ccccc2)n(-c2ccc(S(N)(=O)=O)cc2F)n1` [Example A-1k, 1-[4-(aminosulfonyl)-2-fluorophenyl]-5-benzyl-N-methyl-N-(2-morpholin-4-ylethyl)-1H-1,2,4-triazole-3-carboxamide], on human CA-II [1] (read-out: Kd_CAII), the Kd turned out to be 0.22 nM. Besides, the IC50 at CAI amounted to 23 nM; at human CA-IV (read-out: IC50_CAIV), 148 nM.
As for `CN(CCc1ccccc1)C(=O)c1nc(Cc2ccccc2)n(-c2ccc(S(N)(=O)=O)cc2F)n1` [Example A-1d, 1-[4-(aminosulfonyl)-2-fluorophenyl]-5-benzyl-N-methyl-N-(2-phenylethyl)-1H-1,2,4-triazole-3-carboxamide], on human CA-IX, the IC50 was found to be 2.94 nM.
Still for that read-out and setting: the same measure for `Cc1nc(Cc2cccc(F)c2)n(-c2ccc(S(N)(=O)=O)cc2)n1` [f-3a, 4-[5-(3-fluorobenzyl)-3-methyl-1H-1,2,4-triazol-1-yl]benzenesulfonamide]: 36.9 nM.
Regarding `NS(=O)(=O)c1ccc(-n2nc(CO)cc2Cc2ccc(Cl)cc2)cc1` [qq-3a, 4-[5-(4-chlorobenzyl)-3-(hydroxymethyl)-1H-pyrazol-1-yl]benzenesulfonamide], the IC50 on human CA-IX is 13.5 nM; on human CA-IV (read-out: IC50_CAIV), 284 nM.
On to `CC(C)OC(=O)c1nc(Cc2ccccc2)n(-c2ccc(S(N)(=O)=O)cc2)n1` [Example P-1, Isopropyl 1-[4-(aminosulfonyl)phenyl]-5-benzyl-1H-1,2,4-triazole-3-carboxylate], for which the Kd at human CA-II [1] (read-out: Kd_CAII) was 0.15 nM. Further, the IC50 was 41 nM at CAI and 486 nM on human CA-IV (read-out: IC50_CAIV).
In the case of `COCc1nc(Cc2cccc(Br)c2)n(-c2ccc(S(N)(=O)=O)cc2)n1` [f-3g, 4-[5-(3-bromobenzyl)-3-(methoxymethyl)-1H-1,2,4-triazol-1-yl]benzenesulfonamide], the IC50 on human CA-IX came out at 8.11 nM.
As to `CCCN(C)Cc1nc(Cc2cccc(C)c2)n(-c2ccc(S(N)(=O)=O)cc2F)n1` [Example F-1aj, 3-fluoro-4-[5-(3-methylbenzyl)-3-{[methyl(propyl)amino]methyl}-1H-1,2,4-triazol-1-yl]benzenesulfonamide], the IC50 at human CA-IX came out at 4.32 nM.
